Common to all, as to format: cell-based
The subject of experiment [1] is Human neutrophils. As to the kind of experiment: Neutrophil adhesion under static conditions. Conditions: fMLP-stimulated adhesion to fibrinogen; method: 40 μM and 80 μM, concentration of the value not stated. On the procedure:
Human neutrophils obtained from buffy coats of healthy donors were suspended at 3×10^6/ml in adhesion buffer (PBS containing 1 mM CaCl2)/MgCl2 and 10% FCS, pH 7.2). Neutrophils were preincubated for 30 min at 37° C. with 40 μM and 80 μM of the compounds.
Adhesion assays were performed on 18-well glass slides coated for 18 h at 4° C. with human fibrinogen (20 μg/well in endotoxin-free PBS); 20 μl of cell suspension were added to each well and stimulated for 1 min at 37° C. with 5 μl of fMLP 1 nM final concentration. After washing, adherent cells were fixed in glutaraldehyde 1.5% in PBS and counted by computer-assisted enumeration. Statistical analysis was performed by calculating mean and standard deviation (SD); significance was calculated by unpaired t-test. All statistical analyses were performed using GraphPad Prism 6 (GraphPad Software).

The target in the next experiment is T1, VEGFR-2 (Homo sapiens, UniProt P35968).
T1 construct: endogenous in cells; host or cells: primary HUVEC
The experiment can be described thus: VEGF-165 induced phosphorylation of VEGF-Receptor on HUVEC. Conditions: HUVEC preincubated 60 min, VEGF165 25 ng/mL 2 min; read-out: VEGFR-Phosphorylation inhibition IC50. On the procedure: Cell culture: Primary human umbilical vein endothelial cells (HUVECs) were routinely cultured in 0.1% gelatin pre-coated flasks or dishes, up to passage 6. […]
Rabbit primary antibodies for VEGFR-2, p-Tyr1175 were acquired from Cell Signaling Technology (Leiden, The Netherlands). Phospho-VEGFR-2 (Tyr1175) Sandwich ELISA Kit was from Cell Signaling Technology.
[…] Western blot analysis was performed using anti-phospho-VEGFR-2 antibody and total VEGFR-2 was used as a loading control after membrane stripping.
Inhibition of VEGFR-2-phosphorylation results are expressed as IC50 in microM [μM] versus VEGF-treated HUVECs control without inhibitory compound.

In the next experiment the target is T2, FGF-1 (Homo sapiens, UniProt P05230).
T2 construct: purchased Peprotech 100-17A
The experiment can be described thus: FGF-1 induced sprouting of HUVEC, spheroid-based cellular angiogenesis assay. Conditions: FGF-1 25 ng/mL preincubated with compound, 24 h. On the procedure: (§1) Aim of this in vitro method is to assess compounds effects on FGF-2, FGF-1, or VEGF-A induced sprouting of human umbilical vein endothelial cells (HUVEC) in the spheroid-based cellular angiogenesis assay. Before adding the growth factors to the cells, they were preincubated with the compound. Sunitinib was tested as a control (without preincubation).
(§2) IC50 values determined for the tested compounds are expressed in microM [μM] and the values for the inhibition of FGF-1, FGF2 and VEGF-A induced growth (sprouting) are listed after each compound in the examples after chemical characterization.
(§3) Sprouting test was performed on the compounds dissolved in DMSO to reach 100-fold concentrated stock solutions and dissolved in culture media. Sunitinib as reference compound was provided by ProQinase GmbH. Growth factors were purchased from rhFGF-basic (FGF-2), Peprotech, New Jersey, USA, #100-18C, Lot #0415571; rhFGF-acidic (FGF-1), Peprotech, New Jersey, USA, #100-17A, Lot #031207; hVEGF-A165 (ProQinase GmbH, Freiburg, Germany; 05.02.2010) were used for stimulation of HUVEC cells growth.
(§4) Test system: Endothelial cells from human umbilical vein (HUVEC) from pooled donors were stored frozen with 70% medium, 20% FCS, 10% DMSO at about 1×10^6 cells/ampoule. HUVEC cells, primary human umbilical vein endothelial cells (PromoCell, Heidelberg, Germany), were used after passage 3 to 4. Morphology of the cells are adherent, cobblestone-like growing as monolayer and were cultured in endothelial cell growth and basal medium (ECGM/ECBM, PromoCell). The subculture was split 1:3; every 3-5 days, seed out at ca. 1×10^4 cells/cm^2 and incubated at 37° C. with 5% CO2 with a doubling time 24-48 hours
(§5) Dilution of test compounds: 100× concentrated solutions (concerning to the final assay concentrations) of each test compound were prepared with the appropriate solvent (in DMSO or in water). These 100×compound solutions were further diluted in endothelial cell growth and basal medium (ECBM) 1:7.5 to get a 13.33× concentrated solution. 75 μl of the 13.33×solution was subsequently mixed with 25 μl of 40× concentrated stimulus (solved in ECBM), resulting in a 10×concentrated stimulus/compound mixture. This mixture (100 μl) was incubated for 30 min at 37° C. and then added to 900 μl gel, containing the HUVEC spheroids (resulting in the final assay concentration).
(§6) Test method: the experiments were pursued in modification of the originally published protocol (Korff and Augustin: J Cell Sci 112: 3249-58, 1999). In brief, spheroids were prepared as described (Korff and Augustin: J Cell Biol 143: 1341-52, 1998) by pipetting 400 HUVEC in a hanging drop on plastic dishes to allow overnight spheroid aggregation. 50 HUVEC spheroids were then seeded in 0.9 ml of a collagen gel and pipetted into individual wells of a 24 well plate to allow polymerization. The test compounds were preincubated with the growth factors (FGF-1, FGF-2 or VEGF-A final concentration 25 ng/mL) in a 10-fold concentrated solution and subsequently, 100 μl of this solution was added on top of the polymerized gel. All compounds were diluted in solvent (DMSO or water) as 100×stocks first (which means 100×stocks of each final assay concentration were prepared in solvent). Subsequently, these stocks were further diluted in medium (resulting in the 13.33×stocks of each final assay concentration) with final concentrations tested: 100, 50, 25, 12.5, 6.25, 3.13 and 1.56×10^−6 M). Plates were incubated at 37° C. for 24 hours and fixed by adding 4% PFA (Roth, Karlsruhe, Germany).
(§7) Quantification of growth factor inhibition: sprouting intensity of HUVEC spheroids treated with the growth factor and the inhibitors were quantitated by an image analysis system determining the cumulative sprout length per spheroid (CSL).

The subject of experiment [2] is Human neutrophils. As to the kind of experiment: Inhibition of ROS production in human neutrophils (isoluminol chemiluminescence). Conditions: fMLP+TNF-α stimulated PMN; for inhibition at 0.3 µM / IC50: Homo sapiens, Neutrophil. From the text:
NADPH oxidase, located in the plasma membrane and in the membranes of specific granules, produces superoxide anions from which other ROS, such as hydrogen peroxide, singlet oxygen, hypochlorite, and active hydroxyl radicals. ROS are released into the surrounding medium or into a membrane-enclosed subcellular organelle. One quick and sensitive method for measuring the generation of these metabolites is chemiluminescence (CL). Isoluminol amplified CL technique, is very sensitive and widely used to study respiratory burst (mainly extracellular production of ROS) induced in neutrophils.
Human neutrophils were isolated from buffy coats which obtained from healthy donors. The isolated neutrophils (3×10^6/ml) were suspended in Hanks' Balanced Salt Solution (HBSS) with Calcium and Magnesium. Neutrophils were pre-incubated with the compounds at different concentrations (0.1, 0.3, 1, 3 and 10 μM) for 30 min at 37° C. The black 96-well cell culture plates were coated with human fibrinogen (0.25 mg/ml in PBS), and incubated overnight at 4° C. or 2 hr at 37° C. Then the plates were washed with endotoxin-free PBS. The neutrophils were incubated (priming) with TNF-α (20 ng/ml) for 10 minutes at 37° C. Thereupon the 75 μl of cell suspension and 75 μl (Isoluminol+HRP solution) were added to each well. The chemiluminescence was recorded (every 25 sec for 250 sec) after fMLP (1 μM) activation using a Multilabel Reader victor3 (Perkin Elmer, USA). Background values, defined as the mean chemiluminescent values of isoluminol diluted in HBSS, were subtracted from all readings (CPS, count per second). The assays were done in duplicate or triplicate.

The target of another experiment is T3, FGF-2 (Homo sapiens, UniProt P09038).
T3 construct: purchased Peprotech 100-18C
The experiment can be described thus: FGF-2 induced sprouting of HUVEC, spheroid-based cellular angiogenesis assay. Conditions: FGF-2 25 ng/mL preincubated with compound, 24 h. The procedure: as §1, §2, §3, §4, §5, §6, §7

The source of these data is patent US20230150951A1, “2,5- OR 2,6-DISUBSTITUTED HYDROQUINONE DERIVATIVES WITH AT LEAST ONE CARBOXY, SULFO OR AMIDO GROUP USEFUL AS MEDICAMENTS” (OM PHARMA SA, priority 2020, published 2023).

Some results are limits rather than exact numbers.

One may read the IC50 as the concentration that inhibits the measured activity by half. For orientation: inhibition means the percentage by which the read-out fell short of the control. A high value points to a response far below the control.

T3 sequence (P09038 134-288): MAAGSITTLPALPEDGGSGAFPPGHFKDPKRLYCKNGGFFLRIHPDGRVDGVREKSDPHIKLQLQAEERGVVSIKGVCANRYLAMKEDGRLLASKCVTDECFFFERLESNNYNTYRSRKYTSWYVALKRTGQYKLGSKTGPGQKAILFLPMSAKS
T2 sequence (P05230 whole entry): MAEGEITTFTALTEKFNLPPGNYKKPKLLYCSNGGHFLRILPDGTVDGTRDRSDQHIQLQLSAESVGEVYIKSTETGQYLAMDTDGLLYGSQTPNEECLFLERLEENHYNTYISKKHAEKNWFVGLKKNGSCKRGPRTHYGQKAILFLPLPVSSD
T1 sequence (P35968 20-1356): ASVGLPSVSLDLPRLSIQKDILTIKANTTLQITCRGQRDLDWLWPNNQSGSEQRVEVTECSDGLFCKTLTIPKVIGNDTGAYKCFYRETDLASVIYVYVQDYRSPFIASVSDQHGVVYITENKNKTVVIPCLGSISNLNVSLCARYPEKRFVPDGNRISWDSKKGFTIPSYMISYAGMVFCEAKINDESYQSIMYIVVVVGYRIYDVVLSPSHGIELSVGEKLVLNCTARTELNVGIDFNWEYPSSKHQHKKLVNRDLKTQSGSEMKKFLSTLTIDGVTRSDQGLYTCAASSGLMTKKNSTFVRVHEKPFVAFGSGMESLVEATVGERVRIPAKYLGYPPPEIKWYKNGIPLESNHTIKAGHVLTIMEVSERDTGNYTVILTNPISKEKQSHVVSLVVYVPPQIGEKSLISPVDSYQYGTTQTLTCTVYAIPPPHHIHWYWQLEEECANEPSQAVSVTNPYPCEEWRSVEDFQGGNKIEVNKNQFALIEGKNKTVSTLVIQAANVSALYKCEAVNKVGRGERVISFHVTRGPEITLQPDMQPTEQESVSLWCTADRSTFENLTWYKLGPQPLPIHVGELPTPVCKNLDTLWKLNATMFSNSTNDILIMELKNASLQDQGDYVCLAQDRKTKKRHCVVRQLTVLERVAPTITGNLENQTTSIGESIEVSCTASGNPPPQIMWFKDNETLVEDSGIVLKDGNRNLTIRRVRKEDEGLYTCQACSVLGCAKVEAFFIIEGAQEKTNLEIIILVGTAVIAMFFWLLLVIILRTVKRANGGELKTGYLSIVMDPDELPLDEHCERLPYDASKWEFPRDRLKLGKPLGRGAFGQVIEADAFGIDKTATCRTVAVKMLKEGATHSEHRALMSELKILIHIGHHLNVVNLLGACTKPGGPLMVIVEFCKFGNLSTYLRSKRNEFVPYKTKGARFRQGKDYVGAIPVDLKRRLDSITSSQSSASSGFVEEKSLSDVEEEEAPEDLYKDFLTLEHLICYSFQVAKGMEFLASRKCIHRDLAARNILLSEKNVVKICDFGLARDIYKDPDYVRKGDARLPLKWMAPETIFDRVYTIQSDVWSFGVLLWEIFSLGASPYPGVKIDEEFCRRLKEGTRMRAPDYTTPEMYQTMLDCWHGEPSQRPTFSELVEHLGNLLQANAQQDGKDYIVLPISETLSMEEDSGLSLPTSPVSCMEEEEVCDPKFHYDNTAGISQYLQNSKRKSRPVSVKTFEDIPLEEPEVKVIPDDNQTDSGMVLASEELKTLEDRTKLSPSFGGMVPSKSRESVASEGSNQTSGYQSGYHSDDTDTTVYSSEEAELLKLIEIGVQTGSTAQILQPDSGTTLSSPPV

In the experiment on Human neutrophils [1], `O=C(O)c1cc(O)c(C(=O)Nc2cccc(S(=O)(=O)O)c2)cc1O` [Ia-002c, 2,5-dihydroxy-4-(3-sulfophenylaminocarbonyl)benzoic acid] showed a Neutrophil adhesion inhibition of 1.87%. Also, the IC50 is not below 100 µM on VEGFR-2, 14 µM on FGF-1 and 0.405 µM in the experiment on Human neutrophils [2]. In the experiment on Human neutrophils [2] (0.3 μM), this compound yielded an inhibition at 0.3 µM of 38.9%.

For the compound `O=C(O)c1ccc(NC(=O)c2cc(O)cc(C(=O)O)c2O)cc1` [IIa-003a, 3-(4-carboxyphenylaminocarbonyl)-2,5-dihydroxybenzoic acid], in the experiment with Human neutrophils [1], the Neutrophil adhesion inhibition is 35.27%. Also, the IC50 at VEGFR-2 worked out at 2.5 µM; at FGF-1 it was 22 µM; at FGF-2 it was 13 µM. This compound also returned an inhibition at 0.3 µM in the experiment with Human neutrophils [2] (0.3 μM) of 59.3%.

Turning to `O=C(O)Cc1cccc(NC(=O)c2cc(O)c(C(=O)O)cc2O)c1` [Ia-033a, 4-(3-(carboxymethyl)phenylaminocarbonyl)-2,5-dihydroxybenzoic acid], the Neutrophil adhesion inhibition with Human neutrophils [1] was 38%. Also, the IC50 at VEGFR-2 was not below 100 µM; at FGF-1, 60 µM; with Human neutrophils [2] it was 1.32 µM; at FGF-2, 165 µM. The compound also registered an inhibition at 0.3 µM in the experiment with Human neutrophils [2] (0.3 μM) of 57.7%.

As for `COC(=O)c1cc(O)ccc1NC(=O)c1cc(O)c(C(=O)Nc2ccc(O)cc2C(=O)OC)cc1O` [Ic-009a-E2, methyl 2-(2,5-dihydroxy-4-(4-hydroxy-2-(methoxycarbonyl)phenylaminocarbonyl)benzamido)-5-hydroxybenzoate], the Neutrophil adhesion inhibition with Human neutrophils [1] is listed as 41.05%. Besides, the IC50 at VEGFR-2 is 0.02 µM; on FGF-1, 23 µM; on FGF-2, 30 µM. This compound also showed an inhibition at 0.3 µM in the experiment on Human neutrophils [2] (0.3 μM) of 24.1%.

Compound `CCOC(=O)c1cc(O)cc(C(=O)Nc2ccccc2-c2nnn[nH]2)c1O` [IIa-001aTz-E1, ethyl 3-(2-(1H-tetrazol-5-yl)phenylaminocarbonyl)-2,5-dihydroxybenzoate] gave a Neutrophil adhesion inhibition in the experiment with Human neutrophils [1] of 81.94%. The IC50 at VEGFR-2 was not below 100 µM; on FGF-1 it was not below 200 µM; at FGF-2 it was 42 µM. The compound also returned an inhibition at 0.3 µM in the experiment with Human neutrophils [2] (0.3 μM) of 68.9%.

In turn, `O=C(O)c1cc(O)c(CS(=O)(=O)Cc2cc(O)c(C(=O)O)cc2O)cc1O` [IIIc-059a, 4-((2,5-Dihydroxy-4-carboxyphenyl)methylsulfonylmethyl)-2,5-dihydroxybenzoic acid] had a Neutrophil adhesion inhibition in the experiment with Human neutrophils [1] of 14.67%. In addition, the IC50 was found to be 3.61 µM on VEGFR-2, 47 µM at FGF-1, 1 µM in the experiment on Human neutrophils [2] and 50 µM at FGF-2. Also, 0.3 µM produced 66.4% inhibition in the experiment on Human neutrophils [2] (0.3 μM).

In the experiment on Human neutrophils [1], `CCOC(=O)c1cc(O)c(-c2nc3c(C(=O)OC)cccc3[nH]2)cc1O` [Id-030a-E2] yielded a Neutrophil adhesion inhibition of 43%. In addition, the results for the IC50 at VEGFR-2 and on FGF-1 were 0.33 µM and 115 µM, respectively. Besides, the “PMN ROS inhibition at 0.3 μM” value in the experiment with Human neutrophils [2] (0.3 μM) is 0%.

With `CCOC(=O)Cc1cc(O)c(C(=O)Nc2ccccc2-c2nnn[nH]2)cc1O` [IIIa-001aTz-E1, ethyl (4-(2-(1H-tetrazol-5-yl)phenylaminocarbonyl)-2,5-dihydroxyphenyl)acetate], in the experiment with Human neutrophils [1], the Neutrophil adhesion inhibition is given as 91.76%. The IC50 at VEGFR-2 is 0.32 µM; at FGF-1 it was not below 200 µM. Besides, 0.3 µM produced 70% inhibition with Human neutrophils [2] (0.3 μM).

Take `COC(=O)c1cc(NC(=O)c2cc(O)c(C(=O)Nc3ccc(O)c(C(=O)OC)c3)cc2O)ccc1O` [Ic-007a-E2, methyl 5-(2,5-dihydroxy-4-(4-hydroxy-3-(methoxycarbonyl)phenylaminocarbonyl)benzamido)-2-hydroxybenzoate]: the Neutrophil adhesion inhibition with Human neutrophils [1] was 2%. Besides, the IC50 on VEGFR-2 amounted to 0.25 µM; on FGF-1 it was 23 µM; with Human neutrophils [2], 7.9 µM; at FGF-2, 49 µM. The compound also gave an inhibition at 0.3 µM with Human neutrophils [2] (0.3 μM) of 21.3%.

As for `O=C(O)Cc1cccc(NC(=O)c2cc(O)cc(C(=O)O)c2O)c1` [IIa-033a, 3-(3-(carboxymethyl)phenylaminocarbonyl)-2,5-dihydroxybenzoic acid], the Neutrophil adhesion inhibition in the experiment with Human neutrophils [1] stood at 11.75%. For the same compound, the IC50 on VEGFR-2 was 4.9 µM; on FGF-1, 35 µM; in the experiment with Human neutrophils [2] it was 0.914 µM; at FGF-2, 32 µM. The compound also registered an inhibition at 0.3 µM with Human neutrophils [2] (0.3 μM) of 50.6%.

As to `CCOC(=O)c1cc(NC(=O)c2cc(OC(C)=O)c(C(=O)OCC)cc2OC(C)=O)cc(NC(=O)c2cc(OC(C)=O)c(C(=O)OCC)cc2OC(C)=O)c1` [Ib-010a-E3-A4, ethyl 3,5-bis(2,5-diacetoxy-4-ethoxycarbonylbenzoylamino)benzoate], the Neutrophil adhesion inhibition with Human neutrophils [1] came out at 96%. Moreover, the results for the IC50 on VEGFR-2, on FGF-1 and with Human neutrophils [2] were 0.54 µM, not below 200 µM and 1.49 µM, respectively. In the experiment with Human neutrophils [2] (0.3 μM), this compound came in with an inhibition at 0.3 µM of 54.9%.
